Values joined by “and” are separate entries in the source; they are usually repeats but may differ in a detail not shown here. Equal values may be shown once. Active and inactive are the calls of the source. How the calls were made is not given here.

This data set concerns rodent lifetime carcinogenesis bioassay, tumor incidence TD50. Description: chronic cancer bioassays in animals – CPDB, compiled studies (AID 1745844).
Where [1] appears, read: rat, strain Sprague-Dawley, females, in feed, site: mammary gland, lesion: adenocarcinoma, dosed 46 weeks, study length 66 weeks.
Where [2] appears, read: rat, strain Sprague-Dawley, females, in feed, site: mammary gland, lesion: several types, types named in the paper, dosed 46 weeks, study length 66 weeks.

Regarding `CC(CCl)OC(C)CCl` (stereo not drawn), the TD50 is 231 mg/kg/day (mouse, strain B6C3F1, females, by gavage, site: any site (literature study), lesion: several types, types named in the paper, dosed 103 weeks, study length 106 weeks); 311 mg/kg/day (mouse, strain B6C3F1, females, by gavage, site: lung, lesion: alveolar/bronchiolar adenoma + alveolar/bronchiolar carcinoma, dosed 103 weeks, study length 106 weeks); 381 mg/kg/day (mouse, strain B6C3F1, females, by gavage, site: lung, lesion: alveolar/bronchiolar adenoma, dosed 103 weeks, study length 106 weeks); 1650 mg/kg/day (mouse, strain B6C3F1, females, by gavage, site: stomach, lesion: squamous-cell carcinoma + squamous-cell papilloma, dosed 103 weeks, study length 106 weeks); 116 mg/kg/day (mouse, strain B6C3F1, males, by gavage, site: any site (literature study), lesion: several types, types named in the paper, dosed 103 weeks, study length 105 weeks); 138 mg/kg/day (mouse, strain B6C3F1, males, by gavage, site: liver, lesion: hepatocellular adenoma + hepatocellular carcinoma + neoplastic nodule, dosed 103 weeks, study length 105 weeks). In addition, the TD50 runs as follows: (mouse, strain B6C3F1, males, by gavage, site: liver, lesion: hepatocellular adenoma + hepatocellular carcinoma, dosed 103 weeks, study length 105 weeks) 138 mg/kg/day; (mouse, strain B6C3F1, males, by gavage, site: liver, lesion: hepatocellular carcinoma, dosed 103 weeks, study length 105 weeks) 229 mg/kg/day; (mouse, strain B6C3F1, males, by gavage, site: lung, lesion: alveolar/bronchiolar adenoma + alveolar/bronchiolar carcinoma, dosed 103 weeks, study length 105 weeks) 259 mg/kg/day; (mouse, strain B6C3F1, males, by gavage, site: lung, lesion: alveolar/bronchiolar adenoma, dosed 103 weeks, study length 105 weeks) 306 mg/kg/day; (rat, strain Fischer 344, females, by gavage, site: any site (literature study), lesion: several types, types named in the paper, dosed 103 weeks, study length 105 weeks) 65.6 mg/kg/day (inactive); (rat, strain Fischer 344, males, by gavage, site: any site (literature study), lesion: several types, types named in the paper, dosed 103 weeks, study length 104 weeks) 101 mg/kg/day (inactive).

Regarding `Nc1nc(N)nc(-c2ccc([N+](=O)[O-])o2)n1`, the TD50 (rat, strain Sprague-Dawley, females, in feed, site: any site (literature study), lesion: several types, types named in the paper, dosed 46 weeks, study length 66 weeks) was 1.71 mg/kg/day; the TD50 under setting [1] is 4.49 mg/kg/day; the TD50 under setting [2] was 1.71 mg/kg/day.

As to `CC[C@@H]1NC(=O)[C@@H]2[C@H](Cl)[C@H](Cl)CN2C(=O)[C@H](CO)NC(=O)C[C@H](c2ccccc2)NC(=O)[C@H](CO)NC1=O`, the TD50 is 99.5 mg/kg/day (mouse, strain ddNi, males, in feed, site: liver, lesion: hepatoma, dosed 160 weeks, study length 160 weeks); 48.6 mg/kg/day (mouse, strain ddNi, males, in feed, site: liver, lesion: liver-cell adenoma, dosed 160 weeks, study length 160 weeks); 98.9 mg/kg/day (mouse, strain ddNi, males, in feed, site: liver, lesion: liver-cell carcinoma, dosed 160 weeks, study length 160 weeks); 23.6 mg/kg/day (mouse, strain ddNi, males, in feed, site: liver, lesion: several types, types named in the paper, dosed 160 weeks, study length 160 weeks).

For `O=[N+]([O-])c1ccc2ccc3cccc4ccc1c2c34`, the TD50 was 4.33 mg/kg/day (rat, strain Fischer 344/Jcl, females, by gavage, site: all sites, lesion: mononuclear-cell leukemia, dosed 55 weeks, study length 104 weeks); 157 mg/kg/day (rat, strain Fischer 344/Jcl, females, by gavage, site: clitoral gland, lesion: adenocarcinoma, dosed 55 weeks, study length 104 weeks); 6.16 mg/kg/day (rat, strain Fischer 344/Jcl, females, by gavage, site: clitoral gland, lesion: several types, types named in the paper, dosed 55 weeks, study length 104 weeks); 6.08 mg/kg/day (rat, strain Fischer 344/Jcl, females, by gavage, site: clitoral gland, lesion: squamous-cell carcinoma, dosed 55 weeks, study length 104 weeks); 4.82 mg/kg/day (rat, strain Fischer 344/Jcl, females, by gavage, site: mammary gland, lesion: adenocarcinoma, dosed 55 weeks, study length 104 weeks); 51.4 mg/kg/day (rat, strain Fischer 344/Jcl, females, by gavage, site: mammary gland, lesion: adenoma, dosed 55 weeks, study length 104 weeks). Also, the TD50 was 39.6 mg/kg/day (rat, strain Fischer 344/Jcl, females, by gavage, site: mammary gland, lesion: fibroadenoma, dosed 55 weeks, study length 104 weeks); 3.33 mg/kg/day (rat, strain Fischer 344/Jcl, females, by gavage, site: mammary gland, lesion: several types, types named in the paper, dosed 55 weeks, study length 104 weeks); 13.1 mg/kg/day (rat, strain Fischer 344/Jcl, females, by gavage, site: uterus, lesion: endometrial stromal polyp, dosed 55 weeks, study length 104 weeks).

On to `COc1cc(OC)c2c3c(c(=O)oc2c1)C(=O)CC3`, for which the carcinogen call (rat, strain Fischer, males, by gavage, site: liver, lesion: one or several types, types not named, dosed 52 weeks, study length 87 weeks) was “negative (inactive)”.

Consider `CN(C)Nc1nc(-c2ccc([N+](=O)[O-])o2)cs1`, for which the TD50 is 16.3 mg/kg/day (rat, strain Sprague-Dawley, females, in feed, site: all sites, lesion: lymphoblastic lymphoma, dosed 46 weeks, study length 66 weeks) and 0.391 mg/kg/day under setting [1]. Moreover, under setting [2], the carcinogen call is “positive”.

`Cc1cc(C)c(N)cc1C`: the TD50 is 22.4 mg/kg/day (mouse, strain B6C3F1, females, in feed, site: any site (literature study), lesion: several types, types named in the paper, dosed 101 weeks, study length 101 weeks); 6.13 mg/kg/day (mouse, strain B6C3F1, females, in feed, site: liver, lesion: hepatocellular adenoma + hepatocellular carcinoma + neoplastic nodule, dosed 101 weeks, study length 101 weeks); 6.13 mg/kg/day (mouse, strain B6C3F1, females, in feed, site: liver, lesion: hepatocellular carcinoma, dosed 101 weeks, study length 101 weeks); 47.6 mg/kg/day (mouse, strain B6C3F1, females, in feed, site: lung, lesion: alveolar/bronchiolar adenoma + alveolar/bronchiolar carcinoma, dosed 101 weeks, study length 101 weeks); 52.5 mg/kg/day (inactive) (mouse, strain B6C3F1, males, in feed, site: any site (literature study), lesion: several types, types named in the paper, dosed 101 weeks, study length 101 weeks); 14.4 mg/kg/day (mouse, strain B6C3F1, males, in feed, site: liver, lesion: hepatocellular adenoma + hepatocellular carcinoma + neoplastic nodule, dosed 101 weeks, study length 101 weeks). Further, the TD50 is, setting by setting: (mouse, strain CD-1 HaM/ICR, females, in feed, site: any site (literature study), lesion: several types, types named in the paper, dosed 77 weeks, study length 98 weeks) 47.2 mg/kg/day; (mouse, strain CD-1 HaM/ICR, females, in feed, site: liver, lesion: hepatoma, dosed 77 weeks, study length 98 weeks) 62.9 mg/kg/day and 62.3 mg/kg/day; (mouse, strain CD-1 HaM/ICR, females, in feed, site: liver, lesion: several types, types named in the paper, dosed 77 weeks, study length 98 weeks) 60.4 mg/kg/day; (mouse, strain CD-1 HaM/ICR, females, in feed, site: lung, lesion: several types, types named in the paper, dosed 77 weeks, study length 98 weeks) 52.8 mg/kg/day and 64.7 mg/kg/day; (mouse, strain CD-1 HaM/ICR, males, in feed, site: all sites, lesion: all vascular tumors, dosed 77 weeks, study length 98 weeks) 260 mg/kg/day; (mouse, strain CD-1 HaM/ICR, males, in feed, site: any site (literature study), lesion: several types, types named in the paper, dosed 77 weeks, study length 98 weeks) 40.3 mg/kg/day. The TD50 (mouse, strain CD-1 HaM/ICR, males, in feed, site: liver, lesion: hepatoma, dosed 77 weeks, study length 98 weeks) was 46.2 mg/kg/day and 44.2 mg/kg/day; the TD50 (mouse, strain CD-1 HaM/ICR, males, in feed, site: liver, lesion: several types, types named in the paper, dosed 77 weeks, study length 98 weeks) is 35.4 mg/kg/day; the TD50 (mouse, strain CD-1 HaM/ICR, males, in feed, site: lung, lesion: several types, types named in the paper, dosed 77 weeks, study length 98 weeks) is 40 mg/kg/day and 63 mg/kg/day; the TD50 (rat, strain Charles River CD (Sprague-Dawley), males, in feed, site: any site (literature study), lesion: several types, types named in the paper, dosed 77 weeks, study length 98 weeks) came to 37.2 mg/kg/day; the TD50 (rat, strain Charles River CD (Sprague-Dawley), males, in feed, site: liver, lesion: hepatoma, dosed 77 weeks, study length 98 weeks) was 98.5 mg/kg/day; the TD50 (rat, strain Charles River CD (Sprague-Dawley), males, in feed, site: liver, lesion: several types, types named in the paper, dosed 77 weeks, study length 98 weeks) was 47.9 mg/kg/day. The TD50 (rat, strain Fischer 344, females, in feed, site: any site (literature study), lesion: several types, types named in the paper, dosed 101 weeks, study length 101 weeks) stood at 396 mg/kg/day; the TD50 (rat, strain Fischer 344, females, in feed, site: liver + lung, lesion: hepatocellular carcinoma + neoplastic nodule + alveolar/bronchiolar adenoma + alveolar/bronchiolar carcinoma, dosed 101 weeks, study length 101 weeks) worked out at 20.4 mg/kg/day; the TD50 (rat, strain Fischer 344, females, in feed, site: liver, lesion: hepatocellular adenoma + hepatocellular carcinoma + neoplastic nodule, dosed 101 weeks, study length 101 weeks) is 27.2 mg/kg/day; the TD50 (rat, strain Fischer 344, females, in feed, site: liver, lesion: hepatocellular carcinoma + neoplastic nodule, dosed 101 weeks, study length 101 weeks) is 27.2 mg/kg/day; the TD50 (rat, strain Fischer 344, females, in feed, site: liver, lesion: hepatocellular carcinoma, dosed 101 weeks, study length 101 weeks) was 142 mg/kg/day; the TD50 (rat, strain Fischer 344, females, in feed, site: lung, lesion: alveolar/bronchiolar adenoma + alveolar/bronchiolar carcinoma, dosed 101 weeks, study length 101 weeks) was 88.1 mg/kg/day. The TD50 reads like this: (rat, strain Fischer 344, males, in feed, site: any site (literature study), lesion: several types, types named in the paper, dosed 101 weeks, study length 101 weeks) 138 mg/kg/day; (rat, strain Fischer 344, males, in feed, site: liver, lesion: bile duct carcinoma, dosed 101 weeks, study length 101 weeks) 268 mg/kg/day; (rat, strain Fischer 344, males, in feed, site: liver, lesion: hepatocellular adenoma + hepatocellular carcinoma + neoplastic nodule, dosed 101 weeks, study length 101 weeks) 43.8 mg/kg/day; (rat, strain Fischer 344, males, in feed, site: liver, lesion: hepatocellular carcinoma + neoplastic nodule, dosed 101 weeks, study length 101 weeks) 43.8 mg/kg/day; (rat, strain Fischer 344, males, in feed, site: liver, lesion: hepatocellular carcinoma, dosed 101 weeks, study length 101 weeks) 71.8 mg/kg/day; (rat, strain Fischer 344, males, in feed, site: lung, lesion: alveolar/bronchiolar adenoma + alveolar/bronchiolar carcinoma, dosed 101 weeks, study length 101 weeks) 180 mg/kg/day. For the same molecule, the carcinogen call (rat, strain Charles River CD (Sprague-Dawley), males, in feed, site: subcutaneous tissue, lesion: several types, types named in the paper, dosed 77 weeks, study length 98 weeks) is “positive”.

The term TD50 denotes the 50% point of the dose-response relation for the toxic effect studied.

The record behind these values is PubChem BioAssay AID1745844 (Carcinogenic Potency Database (CPDB), 2022).
